Measured values reported in publication PMC5218480 (PLoS ONE, 2017).

System: MV-4-11 cells
Assay: Gene expression microarray analysis (Affymetrix PrimeView) and GSEA
Type: cell-based, human
Parameters: RFU PODN (11730768_x_at) / Fold change /veh PODN (11730768_x_at) / RFU LINC00158 (11744669_a_at) / Fold change /veh LINC00158 (11744669_a_at) / RFU DUSP10 (11751237_a_at) / Fold change /veh DUSP10 (11751237_a_at) / RFU ID3 (11757404_x_at) / Fold change /veh ID3 (11757404_x_at) / RFU PLEKHG5 (11737974_s_at) / Fold change /veh PLEKHG5 (11737974_s_at) / RFU LRRC4B (11730491_at) / Fold change /veh LRRC4B (11730491_at) / RFU GIMAP4 (11747438_a_at) / Fold change /veh GIMAP4 (11747438_a_at) / RFU KRT8 (11758183_x_at) / Fold change /veh KRT8 (11758183_x_at) / RFU CNN1 (11734310_a_at) / Fold change /veh CNN1 (11734310_a_at) / RFU VPS37D (11726825_at) / Fold change /veh VPS37D (11726825_at) / RFU C10orf10 (11716522_x_at) / Fold change /veh C10orf10 (11716522_x_at) / RFU KIR2DL2 /// KIR2DL4 /// KIR2DL5A /// KIR2DL5B /// KIR2DS1 /// KIR2DS2 /// KIR2DS3 /// KIR2DS4 /// KIR3DL3 /// KIR3DL3 /// KIR3DS1 (11738374_at) / Fold change /veh KIR2DL2 /// KIR2DL4 /// KIR2DL5A /// KIR2DL5B /// KIR2DS1 /// KIR2DS2 /// KIR2DS3 /// KIR2DS4 /// KIR3DL3 /// KIR3DL3 /// KIR3DS1 (11738374_at) / RFU C1QL1 (11718748_at) / Fold change /veh C1QL1 (11718748_at) / RFU TMPRSS4 (11747572_a_at) / Fold change /veh TMPRSS4 (11747572_a_at) / RFU HAMP (11756126_x_at) / Fold change /veh HAMP (11756126_x_at) / RFU RNFT2 (11725882_a_at) / Fold change /veh RNFT2 (11725882_a_at) / RFU NR4A2 (11747474_a_at) / Fold change /veh NR4A2 (11747474_a_at) / RFU ABCC12 (11746883_a_at) / Fold change /veh ABCC12 (11746883_a_at) / RFU TMEM136 (11760407_x_at) / Fold change /veh TMEM136 (11760407_x_at) / RFU CLDN22 /// WWC2 (11732394_at) / Fold change /veh CLDN22 /// WWC2 (11732394_at) / RFU HLA-DPB1 (11760878_x_at) / Fold change /veh HLA-DPB1 (11760878_x_at) / RFU SPINT1 (11716480_a_at) / Fold change /veh SPINT1 (11716480_a_at) / RFU GAP43 (11754022_s_at) / Fold change /veh GAP43 (11754022_s_at) / RFU A4GNT (11735810_at) / Fold change /veh A4GNT (11735810_at) / RFU PRB3 (11715151_x_at) / Fold change /veh PRB3 (11715151_x_at) / RFU TUBB4B (11761932_at) / Fold change /veh TUBB4B (11761932_at) / RFU CAPN14 (11732068_a_at) / Fold change /veh CAPN14 (11732068_a_at) / RFU TMCC2 (11721928_a_at) / Fold change /veh TMCC2 (11721928_a_at) / RFU IRGQ (11745062_a_at) / Fold change /veh IRGQ (11745062_a_at) / RFU FAM174B (11720279_a_at) / Fold change /veh FAM174B (11720279_a_at) / RFU TMPRSS4 (11748680_a_at) / Fold change /veh TMPRSS4 (11748680_a_at) / RFU FAM212B (11763350_a_at) / Fold change /veh FAM212B (11763350_a_at) / RFU PLEKHG5 (11743358_a_at) / Fold change /veh PLEKHG5 (11743358_a_at) / RFU ZSCAN30 (11745921_a_at) / Fold change /veh ZSCAN30 (11745921_a_at) / RFU CMKLR1 (11741424_a_at) / Fold change /veh CMKLR1 (11741424_a_at) / RFU LOC101060620 /// MAPK8IP1 (11723275_at) / Fold change /veh LOC101060620 /// MAPK8IP1 (11723275_at) / RFU SPTSSB (11747773_x_at) / Fold change /veh SPTSSB (11747773_x_at) / RFU PRSS12 (11739890_at) / Fold change /veh PRSS12 (11739890_at) / RFU BIN1 (11741810_x_at) / Fold change /veh BIN1 (11741810_x_at) / RFU WNT11 (11732464_a_at) / Fold change /veh WNT11 (11732464_a_at) / RFU C10orf10 (11716521_a_at) / Fold change /veh C10orf10 (11716521_a_at) / RFU C5orf56 (11738089_at) / Fold change /veh C5orf56 (11738089_at) / RFU CYB561 (11721691_x_at) / Fold change /veh CYB561 (11721691_x_at) / RFU ANKRD19P (11752326_a_at) / Fold change /veh ANKRD19P (11752326_a_at) / RFU OR2T12 /// OR2T33 /// OR2T8 (11738714_s_at) / Fold change /veh OR2T12 /// OR2T33 /// OR2T8 (11738714_s_at) / RFU VCAN (11748164_a_at) / Fold change /veh VCAN (11748164_a_at) / RFU JSRP1 (11732532_at) / Fold change /veh JSRP1 (11732532_at) / RFU KRTAP10-11 (11738290_x_at) / Fold change /veh KRTAP10-11 (11738290_x_at) / RFU MYO3A (11730013_a_at) / Fold change /veh MYO3A (11730013_a_at) / RFU EBF3 (11725865_a_at) / Fold change /veh EBF3 (11725865_a_at) / RFU CAMK2N1 (11719241_x_at) / Fold change /veh CAMK2N1 (11719241_x_at) / RFU C5orf56 (11738088_a_at) / Fold change /veh C5orf56 (11738088_a_at) / RFU OLFML3 (11715873_a_at) / Fold change /veh OLFML3 (11715873_a_at) / RFU LOC100653217 /// NTM (11731650_a_at) / Fold change /veh LOC100653217 /// NTM (11731650_a_at) / RFU MAPK11 (11762145_a_at) / Fold change /veh MAPK11 (11762145_a_at) / RFU FIZ1 (11724087_x_at) / Fold change /veh FIZ1 (11724087_x_at) / RFU OASL (11726364_x_at) / Fold change /veh OASL (11726364_x_at) / RFU SOX15 (11748057_x_at) / Fold change /veh SOX15 (11748057_x_at) / RFU CD79A (11719716_a_at) / Fold change /veh CD79A (11719716_a_at) / RFU HIST1H1D (11736915_at) / Fold change /veh HIST1H1D (11736915_at) / RFU CASKIN2 (11723855_a_at) / Fold change /veh CASKIN2 (11723855_a_at) / RFU LOC730098 (11760151_x_at) / Fold change /veh LOC730098 (11760151_x_at) / RFU OR4N2 (11742367_at) / Fold change /veh OR4N2 (11742367_at) / RFU PRRT2 (11749266_a_at) / Fold change /veh PRRT2 (11749266_a_at) / RFU SNX32 (11753110_a_at) / Fold change /veh SNX32 (11753110_a_at) / RFU CDHR5 (11726645_a_at) / Fold change /veh CDHR5 (11726645_a_at) / RFU RCAN1 (11760418_a_at) / Fold change /veh RCAN1 (11760418_a_at) / RFU FAM167A (11723789_a_at) / Fold change /veh FAM167A (11723789_a_at) / RFU FAM26E (11764081_at) / Fold change /veh FAM26E (11764081_at) / RFU ISYNA1 (11749810_s_at) / Fold change /veh ISYNA1 (11749810_s_at) / RFU ACY1 (11761880_at) / Fold change /veh ACY1 (11761880_at) / RFU 11764098_at / Fold change /veh 11764098_at / RFU SAMD14 (11745864_x_at) / Fold change /veh SAMD14 (11745864_x_at) / RFU NPB (11741838_a_at) / Fold change /veh NPB (11741838_a_at) / RFU TMPRSS6 (11731388_a_at) / Fold change /veh TMPRSS6 (11731388_a_at) / RFU KRTAP10-2 (11738614_at) / Fold change /veh KRTAP10-2 (11738614_at) / RFU ARHGAP8 /// PRR5-ARHGAP8 (11727945_x_at) / Fold change /veh ARHGAP8 /// PRR5-ARHGAP8 (11727945_x_at) / RFU KRTAP5-7 /// NADSYN1 (11734609_at) / Fold change /veh KRTAP5-7 /// NADSYN1 (11734609_at) / RFU RASL12 (11751679_a_at) / Fold change /veh RASL12 (11751679_a_at) / RFU CDKN2B (11736163_a_at) / Fold change /veh CDKN2B (11736163_a_at) / RFU PRF1 (11729649_at) / Fold change /veh PRF1 (11729649_at) / RFU, ZNF638 /// ZNF638-IT1 / Fold change vs veh, ZNF638 /// ZNF638-IT1 / RFU, PANK3 / Fold change vs veh, PANK3 / RFU, SH3YL1 / Fold change vs veh, SH3YL1 / RFU, ZEB2 / Fold change vs veh, ZEB2 / RFU, NRIP1 / Fold change vs veh, NRIP1 / RFU, PTTG1IP / Fold change vs veh, PTTG1IP / RFU, CAPN2 / Fold change vs veh, CAPN2 / RFU, MED14 / Fold change vs veh, MED14 / RFU, SNORA58 / Fold change vs veh, SNORA58 / RFU, C1orf63 / Fold change vs veh, C1orf63 / RFU, LRRFIP1 / Fold change vs veh, LRRFIP1 / RFU, NDUFAF7 / Fold change vs veh, NDUFAF7 / RFU, SLC12A2 / Fold change vs veh, SLC12A2 / RFU, IBTK / Fold change vs veh, IBTK / RFU, ESF1 / Fold change vs veh, ESF1 / Fold change vs veh, TMEM50B / RFU, TAOK1 / Fold change vs veh, TAOK1 / RFU, ACBD3 / Fold change vs veh, ACBD3 / RFU, TMA16 / Fold change vs veh, TMA16 / RFU, RWDD3 / Fold change vs veh, RWDD3 / RFU, BCAT1 / Fold change vs veh, BCAT1 / RFU, EDEM3 / Fold change vs veh, EDEM3 / RFU, TMEM33 / Fold change vs veh, TMEM33 / RFU, WDR75 / Fold change vs veh, WDR75 / RFU, AHCTF1 / Fold change vs veh, AHCTF1 / RFU, TFRC / Fold change vs veh, TFRC / RFU, ZDHHC17 / Fold change vs veh, ZDHHC17 / RFU, NOM1 / Fold change vs veh, NOM1 / RFU, ARL8B / Fold change vs veh, ARL8B / RFU, ZBTB11 / Fold change vs veh, ZBTB11 / RFU, TAMM41 / Fold change vs veh, TAMM41 / RFU, KIAA1704 /// LOC100996395 / Fold change vs veh, KIAA1704 /// LOC100996395 / RFU, ING1 / Fold change vs veh, ING1 / RFU, TRMT61B / Fold change vs veh, TRMT61B / RFU, FUBP3 / Fold change vs veh, FUBP3 / RFU, TP53 / Fold change vs veh, TP53 / RFU, TNKS2 / Fold change vs veh, TNKS2 / RFU, ZFP14 / Fold change vs veh, ZFP14 / RFU, ACTR2 / Fold change vs veh, ACTR2 / RFU, PPP3R1 / Fold change vs veh, PPP3R1 / RFU, PIK3R1 / Fold change vs veh, PIK3R1 / RFU, HNRNPA1 / Fold change vs veh, HNRNPA1 / RFU, RNF170 / Fold change vs veh, RNF170 / RFU, ZNF28 / Fold change vs veh, ZNF28 / RFU, RNGTT / Fold change vs veh, RNGTT / RFU, OGT / Fold change vs veh, OGT / RFU, BRD1 / Fold change vs veh, BRD1 / RFU, MARS / Fold change vs veh, MARS / RFU, ZNF655 / Fold change vs veh, ZNF655 / RFU, FAHD1 / Fold change vs veh, FAHD1 / RFU, BDP1 / Fold change vs veh, BDP1 / RFU, LRRCC1 / Fold change vs veh, LRRCC1 / RFU, ARID1A / Fold change vs veh, ARID1A / RFU, ZNF146 / Fold change vs veh, ZNF146 / RFU, ZNF330 / Fold change vs veh, ZNF330 / RFU, GPN3 / Fold change vs veh, GPN3 / RFU, C9orf123 / Fold change vs veh, C9orf123 / RFU, N4BP2L2 / Fold change vs veh, N4BP2L2 / RFU, ARFIP1 / Fold change vs veh, ARFIP1 / RFU, FAM179B / Fold change vs veh, FAM179B / RFU, BCL10 / Fold change vs veh, BCL10 / RFU, UHRF1BP1L / Fold change vs veh, UHRF1BP1L / RFU, BET1 / Fold change vs veh, BET1 / RFU, CNOT2 / Fold change vs veh, CNOT2 / RFU, ZNF268 / Fold change vs veh, ZNF268 / Fold change vs veh, ZNF507 / RFU, DGCR2 / Fold change vs veh, DGCR2 / RFU, WDSUB1 / Fold change vs veh, WDSUB1 / Fold change vs veh, HSP90B1 /// MIR3652 / RFU, ADSS / Fold change vs veh, ADSS / RFU, GK / Fold change vs veh, GK / RFU, ZNF148 / Fold change vs veh, ZNF148 / RFU, TAF9 / Fold change vs veh, TAF9 / RFU, SLC1A5 / Fold change vs veh, SLC1A5 / RFU, SLMO2 / Fold change vs veh, SLMO2 / RFU, ABCC4 / Fold change vs veh, ABCC4 / RFU, LOC101060439 /// RAP1B / Fold change vs veh, LOC101060439 /// RAP1B / RFU, RFX7 / Fold change vs veh, RFX7 / RFU, GTPBP10 / Fold change vs veh, GTPBP10 / RFU, CNEP1R1 / Fold change vs veh, CNEP1R1 / RFU, BIVM-ERCC5 /// ERCC5 / Fold change vs veh, BIVM-ERCC5 /// ERCC5 / RFU, ILF3 / Fold change vs veh, ILF3 / RFU 11762660_at / Fold change /veh 11762660_at / RFU VCAN (11757783_s_at) / Fold change /veh VCAN (11757783_s_at) / RFU DDX43 (11728927_at) / Fold change /veh DDX43 (11728927_at) / RFU KRT8 (11758188_x_at) / Fold change /veh KRT8 (11758188_x_at) / RFU NKD1 (11759106_at) / Fold change /veh NKD1 (11759106_at) / RFU SRD5A1 (11742802_a_at) / Fold change /veh SRD5A1 (11742802_a_at) / RFU TPSAB1 /// TPSB2 (11721975_s_at) / Fold change /veh TPSAB1 /// TPSB2 (11721975_s_at) / RFU GSTM3 (11746129_a_at) / Fold change /veh GSTM3 (11746129_a_at) / RFU IL23R (11737362_x_at) / Fold change /veh IL23R (11737362_x_at) / RFU TMEM51 (11727254_a_at) / Fold change /veh TMEM51 (11727254_a_at) / RFU PIWIL2 (11732686_x_at) / Fold change /veh PIWIL2 (11732686_x_at) / RFU ORM1 (11744905_x_at) / Fold change /veh ORM1 (11744905_x_at) / RFU CCDC152 (11743942_at) / Fold change /veh CCDC152 (11743942_at) / RFU ECM1 (11717891_a_at) / Fold change /veh ECM1 (11717891_a_at) / RFU IL23R (11748794_a_at) / Fold change /veh IL23R (11748794_a_at) / RFU TNFAIP8L3 (11732012_x_at) / Fold change /veh TNFAIP8L3 (11732012_x_at) / RFU MBOAT4 (11741988_at) / Fold change /veh MBOAT4 (11741988_at) / RFU 11764193_at / Fold change /veh 11764193_at / RFU TMEM53 (11763286_at) / Fold change /veh TMEM53 (11763286_at) / RFU MAGEB2 (11727129_at) / Fold change /veh MAGEB2 (11727129_at) / RFU TMEM200A (11744735_a_at) / Fold change /veh TMEM200A (11744735_a_at) / RFU CCDC152 (11751479_a_at) / Fold change /veh CCDC152 (11751479_a_at) / RFU FAM211A (11726209_a_at) / Fold change /veh FAM211A (11726209_a_at) / RFU RGS16 (11746705_a_at) / Fold change /veh RGS16 (11746705_a_at) / RFU VCAN (11755009_s_at) / Fold change /veh VCAN (11755009_s_at) / RFU RHOB (11743442_s_at) / Fold change /veh RHOB (11743442_s_at) / RFU RGS16 (11720943_a_at) / Fold change /veh RGS16 (11720943_a_at) / RFU RGS16 (11720944_at) / Fold change /veh RGS16 (11720944_at) / RFU, VPS4B / Fold change vs veh, VPS4B / RFU, CREB1 / Fold change vs veh, CREB1 / RFU, DNAJC13 / Fold change vs veh, DNAJC13 / RFU, GNAQ / Fold change vs veh, GNAQ / RFU, CDK5R1 / Fold change vs veh, CDK5R1 / RFU, ZRANB3 / Fold change vs veh, ZRANB3 / RFU, CUL4A / Fold change vs veh, CUL4A / RFU, CCNY / Fold change vs veh, CCNY / RFU, UFL1 / Fold change vs veh, UFL1 / RFU, COG3 / Fold change vs veh, COG3 / RFU, DIAPH2 / Fold change vs veh, DIAPH2 / RFU, SKA2 / Fold change vs veh, SKA2 / RFU, AFF3 / Fold change vs veh, AFF3 / RFU, LMF1 / Fold change vs veh, LMF1 / RFU, IPO11 / Fold change vs veh, IPO11 / RFU, DFFB / Fold change vs veh, DFFB / RFU, FOXP1 / Fold change vs veh, FOXP1 / RFU, CARD8 / Fold change vs veh, CARD8 / RFU, STRN3 / Fold change vs veh, STRN3 / RFU, ADK / Fold change vs veh, ADK / RFU, RASSF2 / Fold change vs veh, RASSF2 / RFU, WIPF1 / Fold change vs veh, WIPF1 / RFU, LARP1B / Fold change vs veh, LARP1B / RFU, RASA1 / Fold change vs veh, RASA1 / RFU, RB1 / Fold change vs veh, RB1 / RFU, PPFIA1 / Fold change vs veh, PPFIA1 / RFU, MAT2A / Fold change vs veh, MAT2A / RFU, CCT5 / Fold change vs veh, CCT5 / RFU, WDR92 / Fold change vs veh, WDR92 / RFU, CUX1 / Fold change vs veh, CUX1 / RFU, TTC7A / Fold change vs veh, TTC7A / RFU, TMEM135 / Fold change vs veh, TMEM135 / RFU, DEPTOR / Fold change vs veh, DEPTOR / RFU, CPM / Fold change vs veh, CPM / RFU, DNAJB6 / Fold change vs veh, DNAJB6 / RFU, CACNA2D3 / Fold change vs veh, CACNA2D3 / RFU, DTX4 / Fold change vs veh, DTX4 / RFU, TFCP2 / Fold change vs veh, TFCP2 / RFU, GMCL1 /// GMCL1P1 / Fold change vs veh, GMCL1 /// GMCL1P1 / RFU, AEBP2 / Fold change vs veh, AEBP2 / RFU, SNHG1 /// SNORD22 /// SNORD25 /// SNORD26 /// SNORD27 /// SNORD28 /// SNORD29 /// SNORD31 / Fold change vs veh, SNHG1 /// SNORD22 /// SNORD25 /// SNORD26 /// SNORD27 /// SNORD28 /// SNORD29 /// SNORD31 / Fold change (Aza/veh), C12orf56 (ProbeSet 11735607_a_at) / Fold change (ACY-1035/veh), C12orf56 (ProbeSet 11735607_a_at) / Fold change (Aza/veh), FGFR1OP (ProbeSet 11751329_s_at) / Fold change (ACY-1035/veh), FGFR1OP (ProbeSet 11751329_s_at) / Fold change (Aza/veh), VPS36 (ProbeSet 11739960_a_at) / Fold change (ACY-1035/veh), VPS36 (ProbeSet 11739960_a_at) / RFU SYPL1 (11715823_x_at) / Fold change /veh SYPL1 (11715823_x_at) / RFU IGFBP7 (11715501_s_at) / Fold change /veh IGFBP7 (11715501_s_at) / RFU REEP3 (11722064_at) / Fold change /veh REEP3 (11722064_at) / RFU IGLL1 (11728026_x_at) / Fold change /veh IGLL1 (11728026_x_at): dose or concentration left out as unconfirmed
Settings: MV-4-11 cells, 48 hours

Nc1ncn([C@@H]2O[C@H](CO)[C@@H](O)[C@H]2O)c(=O)n1 [azacitidine]
RFU VPS37D (11726825_at): 18.02 RFU
